Experimental data published in the supplement of paper PMC10307832.

Legend:
Test in all cases: relative viability (nuclei count vs DMSO), 5 days (fraction); higher = more cells survive
NCI-H1915 = test system: NCI-H1915
Method in brief: (§1)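 Medians of duplicate plates are given as relative viability. That measure is the nuclei count in treated wells divided by the count in vehicle wells. Counts were taken on 4× images of lung cancer cell lines in 1536-well plates, 5 days after pin-tool dosing the day after seeding with one drug alone or a fixed anchor-drug dose plus five library-drug doses (not always all listed) in √10 steps.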

NCI-H441 = test system: NCI-H441
Method in brief: as §1

NCI-H2170 = test system: NCI-H2170
Method in brief: as §1

LCLC-97TM1 = test system: LCLC-97TM1
Method in brief: as §1

NCI-H2405 = test system: NCI-H2405
Method in brief: as §1

A-427 = test system: A-427
Method in brief: as §1

LXF-289 = test system: LXF-289
Method in brief: as §1

NCI-H838 = test system: NCI-H838
Method in brief: as §1

HARA = test system: HARA
Method in brief: as §1

NCI-H520 = test system: NCI-H520
Method in brief: as §1

HCC-366 = test system: HCC-366
Method in brief: as §1

NCI-H1993 = test system: NCI-H1993
Method in brief: as §1

PC-14 = test system: PC-14
Method in brief: as §1

NCI-H2228 = test system: NCI-H2228
Method in brief: as §1

NCI-H1975 = test system: NCI-H1975
Method in brief: as §1

HCC-44 = test system: HCC-44
Method in brief: as §1

RERF-LC-KJ = test system: RERF-LC-KJ
Method in brief: as §1

NCI-H2347 = test system: NCI-H2347
Method in brief: as §1

H3255 = test system: H3255
Method in brief: as §1

NCI-H1395 = test system: NCI-H1395
Method in brief: as §1

NCI-H1755 = test system: NCI-H1755
Method in brief: as §1

SK-MES-1 = test system: SK-MES-1
Method in brief: as §1

NCI-H3122 = test system: NCI-H3122
Method in brief: as §1

Compound: C=C1C(=O)O[C@@H](CCCCCCCC)[C@@H]1C(=O)O [C-75] + CC1(C)CCC(c2ccc(Cl)cc2)=C(CN2CCN(c3ccc(C(=O)NS(=O)(=O)c4ccc(N[C@H](CCN5CCOCC5)CSc5ccccc5)c(S(=O)(=O)C(F)(F)F)c4)cc3)CC2)C1 [Navitoclax] (partner 0.5 µM)
- relative viability (NCI-H1915; first compound 0.08 µM): 0.818
- relative viability (NCI-H1915; first compound 0.253 µM): 0.785
- relative viability (NCI-H1915; first compound 0.8 µM): 0.774
- relative viability (NCI-H1915; first compound 2.53 µM): 0.386
- relative viability (NCI-H1915; first compound 8 µM): 0.781
- relative viability (NCI-H441; first compound 0.08 µM): 0.566
- relative viability (NCI-H441; first compound 0.253 µM): 0.618
- relative viability (NCI-H441; first compound 0.8 µM): 0.599
- relative viability (NCI-H441; first compound 2.53 µM): 0.401
- relative viability (NCI-H441; first compound 8 µM): 0.488
- relative viability (NCI-H2170; first compound 0.08 µM): 0.71
- relative viability (NCI-H2170; first compound 0.253 µM): 0.641
- relative viability (NCI-H2170; first compound 0.8 µM): 0.556
- relative viability (NCI-H2170; first compound 2.53 µM): 0.525
- relative viability (NCI-H2170; first compound 8 µM): 0.586
- relative viability (LCLC-97TM1; first compound 0.08 µM): 0.36
- relative viability (LCLC-97TM1; first compound 0.253 µM): 0.697
- relative viability (LCLC-97TM1; first compound 0.8 µM): 0.357
- relative viability (LCLC-97TM1; first compound 2.53 µM): 0.304
- relative viability (LCLC-97TM1; first compound 8 µM): 0.292
- relative viability (NCI-H2405; first compound 0.08 µM): 0.93
- relative viability (NCI-H2405; first compound 0.253 µM): 0.633
- relative viability (NCI-H2405; first compound 0.8 µM): 0.863
- relative viability (NCI-H2405; first compound 2.53 µM): 0.83
- relative viability (NCI-H2405; first compound 8 µM): 0.802
- relative viability (A-427; first compound 0.08 µM): 0.935
- relative viability (A-427; first compound 0.253 µM): 1.04
- relative viability (A-427; first compound 0.8 µM): 0.915
- relative viability (A-427; first compound 2.53 µM): 0.903
- relative viability (A-427; first compound 8 µM): 0.93
- relative viability (LXF-289; first compound 0.08 µM): 0.896
- relative viability (LXF-289; first compound 0.253 µM): 0.999
- relative viability (LXF-289; first compound 0.8 µM): 0.91
- relative viability (LXF-289; first compound 2.53 µM): 0.873
- relative viability (LXF-289; first compound 8 µM): 0.928
- relative viability (NCI-H838; first compound 0.08 µM): 1.12
- relative viability (NCI-H838; first compound 0.253 µM): 0.916
- relative viability (NCI-H838; first compound 0.8 µM): 1.14
- relative viability (NCI-H838; first compound 2.53 µM): 1.03
- relative viability (NCI-H838; first compound 8 µM): 0.954
- relative viability (HARA; first compound 0.08 µM): 1.07
- relative viability (HARA; first compound 0.253 µM): 1.26
- relative viability (HARA; first compound 0.8 µM): 1.12
- relative viability (HARA; first compound 8 µM): 1.14
- relative viability (NCI-H520; first compound 0.08 µM): 1.13
- relative viability (NCI-H520; first compound 0.253 µM): 1.24
- relative viability (NCI-H520; first compound 0.8 µM): 1
- relative viability (NCI-H520; first compound 2.53 µM): 0.837
- relative viability (NCI-H520; first compound 8 µM): 0.82
- relative viability (HCC-366; first compound 0.08 µM): 1.03
- relative viability (HCC-366; first compound 0.253 µM): 1.1
- relative viability (HCC-366; first compound 0.8 µM): 0.943
- relative viability (HCC-366; first compound 8 µM): 0.833
- relative viability (NCI-H1993; first compound 0.08 µM): 1.03
- relative viability (NCI-H1993; first compound 0.253 µM): 0.944
- relative viability (NCI-H1993; first compound 0.8 µM): 0.995
- relative viability (NCI-H1993; first compound 2.53 µM): 0.938
- relative viability (NCI-H1993; first compound 8 µM): 1.11
- relative viability (PC-14; first compound 0.08 µM): 1.01
- relative viability (PC-14; first compound 0.253 µM): 1
- relative viability (PC-14; first compound 0.8 µM): 0.977
- relative viability (PC-14; first compound 2.53 µM): 0.911
- relative viability (PC-14; first compound 8 µM): 0.978
- relative viability (NCI-H2228; first compound 0.08 µM): 1.04
- relative viability (NCI-H2228; first compound 0.253 µM): 1.21
- relative viability (NCI-H2228; first compound 0.8 µM): 0.707
- relative viability (NCI-H2228; first compound 2.53 µM): 0.973
- relative viability (NCI-H2228; first compound 8 µM): 0.75
- relative viability (NCI-H1975; first compound 0.08 µM): 0.983
- relative viability (NCI-H1975; first compound 0.253 µM): 1.1
- relative viability (NCI-H1975; first compound 0.8 µM): 1.12
- relative viability (NCI-H1975; first compound 2.53 µM): 1.1
- relative viability (NCI-H1975; first compound 8 µM): 1.14
- relative viability (HCC-44; first compound 0.08 µM): 0.972
- relative viability (HCC-44; first compound 0.253 µM): 0.959
- relative viability (HCC-44; first compound 0.8 µM): 0.905
- relative viability (HCC-44; first compound 2.53 µM): 0.791
- relative viability (HCC-44; first compound 8 µM): 1.02
- relative viability (RERF-LC-KJ; first compound 0.08 µM): 0.91
- relative viability (RERF-LC-KJ; first compound 0.253 µM): 1.47
- relative viability (RERF-LC-KJ; first compound 0.8 µM): 0.881
- relative viability (RERF-LC-KJ; first compound 2.53 µM): 0.843
- relative viability (RERF-LC-KJ; first compound 8 µM): 0.802
- relative viability (NCI-H2347; first compound 0.08 µM): 0.688
- relative viability (NCI-H2347; first compound 0.253 µM): 1.03
- relative viability (NCI-H2347; first compound 0.8 µM): 0.755
- relative viability (NCI-H2347; first compound 2.53 µM): 0.758
- relative viability (NCI-H2347; first compound 8 µM): 0.714
- relative viability (H3255; first compound 0.08 µM): 0.565
- relative viability (H3255; first compound 0.253 µM): 0.5
- relative viability (H3255; first compound 0.8 µM): 0.513
- relative viability (H3255; first compound 2.53 µM): 0.466
- relative viability (H3255; first compound 8 µM): 0.577
- relative viability (NCI-H1395; first compound 0.08 µM): 1.13
- relative viability (NCI-H1395; first compound 0.253 µM): 1.24
- relative viability (NCI-H1395; first compound 0.8 µM): 0.989
- relative viability (NCI-H1395; first compound 2.53 µM): 0.813
- relative viability (NCI-H1395; first compound 8 µM): 1.26
- relative viability (NCI-H1755; first compound 0.08 µM): 0.945
- relative viability (NCI-H1755; first compound 0.253 µM): 0.935
- relative viability (NCI-H1755; first compound 0.8 µM): 1.02
- relative viability (NCI-H1755; first compound 2.53 µM): 0.711
- relative viability (NCI-H1755; first compound 8 µM): 0.957
- relative viability (SK-MES-1; first compound 0.08 µM): 1.31
- relative viability (SK-MES-1; first compound 0.253 µM): 1.23
- relative viability (SK-MES-1; first compound 0.8 µM): 1.16
- relative viability (SK-MES-1; first compound 2.53 µM): 1.21
- relative viability (SK-MES-1; first compound 8 µM): 1.17
- relative viability (NCI-H3122; first compound 0.08 µM): 0.973
- relative viability (NCI-H3122; first compound 0.253 µM): 1.05
- relative viability (NCI-H3122; first compound 0.8 µM): 0.986
- relative viability (NCI-H3122; first compound 8 µM): 1.09
